Measurements as given in PubChem BioAssay (NCI).
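Following 48 hours of exposure in 96-well plates, responses at five concentrations were used to interpolate endpoints linearly. The concentration for full growth arrest is given as TGI.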

Assays:
Experiment in all cases: NCI tumour cell line growth inhibition, 48 h
OVCAR-3 ovarian = test system: OVCAR-3 ovarian
SNB-75 CNS = test system: SNB-75 CNS
HOP-62 NSCLC = test system: HOP-62 NSCLC
OVCAR-4 ovarian = test system: OVCAR-4 ovarian
UACC-257 melanoma = test system: UACC-257 melanoma
HCT-116 colon = test system: HCT-116 colon
DMS 273 small cell lung = test system: DMS 273 small cell lung
RPMI-8226 leukemia = test system: RPMI-8226 leukemia
SF-268 CNS = test system: SF-268 CNS
M14 melanoma = test system: M14 melanoma
MOLT-4 leukemia = test system: MOLT-4 leukemia
LXFL 529 NSCLC = test system: LXFL 529 NSCLC
MALME-3M melanoma = test system: MALME-3M melanoma
ACHN renal = test system: ACHN renal
HOP-18 NSCLC = test system: HOP-18 NSCLC
SR leukemia = test system: SR leukemia
SNB-19 CNS = test system: SNB-19 CNS
COLO 205 colon = test system: COLO 205 colon
U251 CNS = test system: U251 CNS
TK-10 renal = test system: TK-10 renal
NCI-H226 lung = test system: NCI-H226 lung
SN12C renal = test system: SN12C renal
HL-60(TB) leukemia = test system: HL-60(TB) leukemia
DMS 114 small cell lung = test system: DMS 114 small cell lung
SK-OV-3 ovarian = test system: SK-OV-3 ovarian
NCI-H522 lung = test system: NCI-H522 lung
SK-MEL-5 melanoma = test system: SK-MEL-5 melanoma
M19-MEL melanoma = test system: M19-MEL melanoma
SW-620 colon = test system: SW-620 colon
UO-31 renal = test system: UO-31 renal
OVCAR-8 ovarian = test system: OVCAR-8 ovarian
KM12 colon = test system: KM12 colon
SF-539 CNS = test system: SF-539 CNS
SK-MEL-2 melanoma = test system: SK-MEL-2 melanoma
K-562 leukemia = test system: K-562 leukemia
DLD-1 colon = test system: DLD-1 colon
A549 NSCLC = test system: A549 NSCLC
NCI-H460 lung = test system: NCI-H460 lung
HCC-2998 colon = test system: HCC-2998 colon
KM20L2 colon = test system: KM20L2 colon
RXF-631 renal = test system: RXF-631 renal
A498 renal = test system: A498 renal
RXF 393 renal = test system: RXF 393 renal
SK-MEL-28 melanoma = test system: SK-MEL-28 melanoma
HCT-15 colon = test system: HCT-15 colon
IGROV1 ovarian = test system: IGROV1 ovarian
786-0 renal = test system: 786-0 renal
CAKI-1 renal = test system: CAKI-1 renal
SNB-78 CNS = test system: SNB-78 CNS
UACC-62 melanoma = test system: UACC-62 melanoma
CCRF-CEM leukemia = test system: CCRF-CEM leukemia
OVCAR-5 ovarian = test system: OVCAR-5 ovarian
EKVX NSCLC = test system: EKVX NSCLC
SF-295 CNS = test system: SF-295 CNS
HT29 colon = test system: HT29 colon
NCI-H23 lung = test system: NCI-H23 lung

`COC(=O)C1CC(OC(C)=O)C=C2C(=O)CCC21` (stereo not given) showed a TGI (OVCAR-3 ovarian) of 31.2 µM, a TGI (SNB-75 CNS) of 48 µM and a TGI (HOP-62 NSCLC) of 61 µM. It also gave a TGI (OVCAR-4 ovarian) of 45.1 µM, a TGI (UACC-257 melanoma) of 37 µM and a TGI (HCT-116 colon) of 29.8 µM. It also gave a TGI (DMS 273 small cell lung) of 43.8 µM, a TGI (RPMI-8226 leukemia) of 57.7 µM and a TGI (SF-268 CNS) of 38.8 µM. For the same molecule, the TGI (M14 melanoma) was 50.2 µM, the TGI (MOLT-4 leukemia) was 40 µM and the TGI (LXFL 529 NSCLC) was 39.3 µM. It also gave a TGI (MALME-3M melanoma) of 63.8 µM, a TGI (ACHN renal) of 46.3 µM and a TGI (HOP-18 NSCLC) of 64.3 µM. For the same molecule, the TGI (SR leukemia) was 45.4 µM, the TGI (SNB-19 CNS) was 60.3 µM and the TGI (COLO 205 colon) was 34.4 µM. It also gave a TGI (U251 CNS) of 80.9 µM, a TGI (TK-10 renal) of 77.5 µM and a TGI (NCI-H226 lung) greater than 100 µM. For the same molecule, the TGI (SN12C renal) was 41.9 µM, the TGI (HL-60(TB) leukemia) was 29.5 µM and the TGI (DMS 114 small cell lung) was 30.8 µM. For the same molecule, the TGI (SK-OV-3 ovarian) was 69.9 µM, the TGI (NCI-H522 lung) was 3.75 µM and the TGI (SK-MEL-5 melanoma) was 67.9 µM. It also gave a TGI (M19-MEL melanoma) of 59.9 µM, a TGI (SW-620 colon) of 39.4 µM and a TGI (UO-31 renal) of 80.3 µM. It also gave a TGI (OVCAR-8 ovarian) of 37.6 µM, a TGI (KM12 colon) of 31.6 µM and a TGI (SF-539 CNS) of 50.6 µM. It also gave a TGI (SK-MEL-2 melanoma) of 79.9 µM, a TGI (K-562 leukemia) of 29.3 µM and a TGI (DLD-1 colon) of 40.7 µM. It also gave a TGI (A549 NSCLC) greater than 100 µM, a TGI (NCI-H460 lung) of 35.2 µM and a TGI (HCC-2998 colon) greater than 100 µM. For the same molecule, the TGI (KM20L2 colon) was 70.1 µM, the TGI (RXF-631 renal) was 86.8 µM and the TGI (A498 renal) was greater than 100 µM. The TGI (RXF 393 renal) was 29.8 µM, the TGI (SK-MEL-28 melanoma) was 33.8 µM and the TGI (HCT-15 colon) was 30.9 µM. It also gave a TGI (IGROV1 ovarian) of 82.6 µM, a TGI (786-0 renal) of 51 µM and a TGI (CAKI-1 renal) of 55.8 µM. It also gave a TGI (SNB-78 CNS) of 72.8 µM, a TGI (UACC-62 melanoma) of 35.9 µM and a TGI (CCRF-CEM leukemia) of 34.4 µM.
Work on `COC(=O)[C@@H](C)[C@H]1CC[C@@](C)(CCC2=C(C)CC3C=C(C)CCC3C2(C)C)OO1` (stereo not given in full) yielded a TGI (OVCAR-5 ovarian) of 3.27 µM, a TGI (OVCAR-3 ovarian) of 3.42 µM and a TGI (SNB-75 CNS) of 2.94 µM. It also gave a TGI (HOP-62 NSCLC) of 3.72 µM, a TGI (OVCAR-4 ovarian) of 3 µM and a TGI (UACC-257 melanoma) of 7.61 µM. It also gave a TGI (HCT-116 colon) of 3.81 µM, a TGI (DMS 273 small cell lung) of 4.43 µM and a TGI (RPMI-8226 leukemia) of 5.98 µM. For the same molecule, the TGI (SF-268 CNS) was 3.76 µM, the TGI (M14 melanoma) was 3.13 µM and the TGI (MOLT-4 leukemia) was 2.75 µM. For the same molecule, the TGI (LXFL 529 NSCLC) was 2.2 µM, the TGI (MALME-3M melanoma) was 3.96 µM and the TGI (EKVX NSCLC) was 3.03 µM. The TGI (ACHN renal) was 2.87 µM, the TGI (SF-295 CNS) was 3.2 µM and the TGI (SR leukemia) was 3.87 µM. For the same molecule, the TGI (SNB-19 CNS) was 3.16 µM, the TGI (COLO 205 colon) was 4.38 µM and the TGI (U251 CNS) was 2.73 µM. It also gave a TGI (TK-10 renal) of 3.31 µM, a TGI (NCI-H226 lung) of 4.13 µM and a TGI (SN12C renal) of 2.36 µM. For the same molecule, the TGI (HL-60(TB) leukemia) was 0.449 µM, the TGI (DMS 114 small cell lung) was 4.04 µM and the TGI (SK-OV-3 ovarian) was 3.87 µM. The TGI (NCI-H522 lung) was 0.331 µM, the TGI (SK-MEL-5 melanoma) was 2.87 µM and the TGI (M19-MEL melanoma) was 3.75 µM. For the same molecule, the TGI (HT29 colon) was 2.96 µM, the TGI (SW-620 colon) was 1.01 µM and the TGI (UO-31 renal) was 2.76 µM. For the same molecule, the TGI (OVCAR-8 ovarian) was 4.09 µM, the TGI (KM12 colon) was 2.9 µM and the TGI (SF-539 CNS) was 3.27 µM. For the same molecule, the TGI (SK-MEL-2 melanoma) was 3.32 µM, the TGI (DLD-1 colon) was 2.54 µM and the TGI (A549 NSCLC) was 3.12 µM. It also gave a TGI (NCI-H460 lung) of 3.57 µM, a TGI (HCC-2998 colon) of 2.65 µM and a TGI (KM20L2 colon) of 3.13 µM. The TGI (RXF-631 renal) was 4.63 µM, the TGI (A498 renal) was 3.19 µM and the TGI (RXF 393 renal) was 2.84 µM. For the same molecule, the TGI (SK-MEL-28 melanoma) was 3.22 µM, the TGI (NCI-H23 lung) was 3.49 µM and the TGI (HCT-15 colon) was 2.82 µM. The TGI (IGROV1 ovarian) was 3.06 µM, the TGI (786-0 renal) was 0.263 µM and the TGI (CAKI-1 renal) was 2.71 µM. The TGI (SNB-78 CNS) was 4.76 µM, the TGI (UACC-62 melanoma) was 3.86 µM and the TGI (CCRF-CEM leukemia) was 0.39 µM.
